According to ChEMBL document CHEMBL5233264, “Targeting MYC: From understanding its biology to drug discovery” (Eur J Med Chem, 2021):
One block for each compound: values may come before it.

Experiments:
[1] = biological target: Bromodomain-containing protein 4 (Homo sapiens, UniProt O60885); assay: Inhibition of BRD4 (unknown origin)
HL-60 = assay: Cytotoxicity against human HL-60 cells measured after 72 hrs by MTT assay; assay type: functional, cell-based; settings: HL-60, 72 h
Calf thymus DNA = assay: Binding affinity to calf thymus DNA sequence; assay type: nucleic-acid assay, Bos taurus
HepG2 = assay: Anticancer activity against human HepG2 cells; assay type: functional, cell-based
Quadruplex DNA [2] = assay: Binding affinity to human MYC G4 DNA sequence; assay type: nucleic-acid assay
Homo sapiens [3] = species on record: Homo sapiens; assay: Binding affinity to double-stranded DNA FdxT (unknown origin) assessed as change in melting temperature at 1 uM by high-throughput FRET melting assay
Homo sapiens [4] = species on record: Homo sapiens; assay: Binding affinity to human telomeric repeat F21T assessed as change in melting temperature at 1 uM by high-throughput FRET melting assay
Homo sapiens [5] = species on record: Homo sapiens; assay: Binding affinity to c-MYC promoter G4 sequences FmycT (unknown origin) assessed as change in melting temperature at 1 uM by high-throughput FRET melting assay
Quadruplex DNA [6] = assay: Binding affinity to MYC G4-quadruplex DNA (unknown origin) assessed as dissociation constant; assay type: nucleic-acid assay
4T1 = assay: Anticancer activity against mouse 4T1 cells; assay type: functional, cell-based
[7] = Binding affinity to MYC bHLH Zip (unknown origin) assessed as dissociation constant by microscale thermophoresis assay; design: species or system Homo sapiens
[8] = Growth inhibition of human Burkitts lymphoma cell; assay type: functional, cell-based
[9] = In vivo inhibition of BRD4 in human MV4-11 cells xenografted in mouse tumor model; assay type: functional, organism-based

Compound: Oc1ccc(Cl)c2cccnc12 [CLOXYQUIN]
IC50 [1]: 6470 nM

Compound: O=[N+]([O-])c1ccc(Nc2ccccc2-c2ccccc2)c2nonc12
IC50 (HL-60): 23000 nM

Compound: CCCCOC(=O)CCN1C(=O)S/C(=C\c2ccc(CC)cc2)C1=O
IC50 (HL-60): 5000 nM

Compound: CN(CCc1ccc(Br)cc1)c1ccc2nc3ccc(N(C)CCc4ccc(Br)cc4)cc3[s+]c2c1
Kd (Calf thymus DNA): 11000 nM
IC50 (HepG2): 1000 nM
Kd (Quadruplex DNA [2]): 70 nM

Compound: CN(C)c1ccc2nc3ccc(N(C)C)cc3[s+]c2c1 [METHYLENE BLUE ANHYDROUS]
Kd (Calf thymus DNA): 200 nM
IC50 (HepG2): 6000 nM
Kd (Quadruplex DNA [2]): 200 nM

Compound: C[n+]1cc(NC(=O)c2ccc3ccc4ccc(C(=O)Nc5cc6ccccc6[n+](C)c5)nc4c3n2)cc2ccccc21
ΔTm (Homo sapiens [3]): 0 °C
ΔTm (Homo sapiens [4]): 17.3 °C
ΔTm (Homo sapiens [5]): 12 °C

Compound: COC(=O)c1ccc(Nc2ccc([N+](=O)[O-])c3nonc23)c(-c2ccc(C)cc2)c1
IC50 (HL-60): 23000 nM

More lines, main results first:

IC50 [1]: 3 nM
Compound: CCS(=O)(=O)Nc1ccc(Oc2ccc(F)cc2F)c(-c2cn(C)c(=O)c3[nH]ccc23)c1 [MIVEBRESIB]

IC50 [1]: 980 nM
Compound: CCn1cc(C(=O)O)c(=O)c2cc(F)c(N3CCNCC3)cc21 [NORFLOXACIN]

ΔTm (Homo sapiens [3]): 9.2 °C
ΔTm (Homo sapiens [4]): 9.2 °C
ΔTm (Homo sapiens [5]): 3.6 °C
Compound: c1cc2ccc3ccc4nc3c2nc1CNCCCCCCCNC4

Kd (Quadruplex DNA [6]): 2000 nM
Compound: O=c1oc2c3c4c(cc2cc1-c1nc2ccccc2s1)CCCN4CCC3

IC50 (HepG2): 4500 nM
Kd (Quadruplex DNA [6]): 2000 nM
IC50 (4T1): 3900 nM
Compound: CN1CCN(c2ccc(-c3nc(-c4nc5ccccc5s4)[nH]c3-c3ccc(N4CCN(C)CC4)cc3)cc2)CC1

Kd [7]: 2000 nM
Compound: CCOc1ccc2nc3cc(/N=N/c4ccc(N)cc4N)ccc3c(N)c2c1
IC50 [8]: 500 nM

Kd (Quadruplex DNA [6]): 1300 nM
IC50 (4T1): 700 nM
Compound: CN1CCN(c2ccc(-c3nc4cc(F)c(F)cc4nc3-c3ccc(N4CCN(C)CC4)cc3)cc2)CC1

IC50 [9]: 120 nM
Compound: Cc1noc2c1-c1ccccc1C(c1ccc(Cl)cc1)=N[C@H]2CC(N)=O [PELABRESIB]
